Tests used:
[1] = target: Early growth response protein 1 (Homo sapiens) (UniProt P18146); experiment: Disruption of EGR-1-DNA binding in human HaCaT cell nuclear extract at 50 uM in the presence of biotin-EBS oligonucleotide probe (5'-CAAAAAGGAGGAAGGTGAGGGAA-biotin-3') and poly(dI-dC) by EMSA analysis relative to control; assay type: subcellular
[2] = target: Early growth response protein 1 (Homo sapiens) (UniProt P18146); experiment: Disruption of EGR-1-DNA binding in TNF-alpha-stimulated human HaCaT cells assessed as decrease in CCL-2 mRNA level in presence of TNF-alpha by RT-PCR analysis; assay type: cell-based; settings: dose 10-20 µM
[3] = target: Early growth response protein 1 (Homo sapiens) (UniProt P18146); experiment: Disruption of EGR-1-DNA binding in TNF-alpha-stimulated human HaCaT cell nuclear extract assessed as reduction in DNA-protein complex formation pretreated for 1 hr followed by incubation of nuclear extract with biotin-EBS oligonucleotide probe (5'-CAAAAAGGAGGAAGGTGAGGGAA-biotin-3') by EMSA analysis; assay type: subcellular; settings: Nucleus, dose 10-20 µM
[4] = target: Early growth response protein 1 (Homo sapiens) (UniProt P18146); experiment: Disruption of EGR-1-DNA binding in TNF-alpha-stimulated human HaCaT cells assessed as decrease in IL-31 mRNA level in presence of TNF-alpha by RT-PCR analysis; assay type: cell-based; settings: dose 10-20 µM
[5] = target: Early growth response protein 1 (Homo sapiens) (UniProt P18146); experiment: Disruption of EGR-1-DNA binding in TNF-alpha-stimulated human HaCaT cells assessed as decrease in IL-6 mRNA level in presence of TNF-alpha by RT-PCR analysis; assay type: cell-based; settings: dose 10-20 µM
[6] = target: Early growth response protein 1 (Homo sapiens) (UniProt P18146); experiment: Disruption of EGR-1-DNA binding in TNF-alpha-stimulated human HaCaT cells assessed as decrease in TSLP mRNA level in presence of TNF-alpha by RT-PCR analysis; assay type: cell-based; settings: dose 10-20 µM

Sequence of Early growth response protein 1 (Homo sapiens) (P18146 whole entry, looked up): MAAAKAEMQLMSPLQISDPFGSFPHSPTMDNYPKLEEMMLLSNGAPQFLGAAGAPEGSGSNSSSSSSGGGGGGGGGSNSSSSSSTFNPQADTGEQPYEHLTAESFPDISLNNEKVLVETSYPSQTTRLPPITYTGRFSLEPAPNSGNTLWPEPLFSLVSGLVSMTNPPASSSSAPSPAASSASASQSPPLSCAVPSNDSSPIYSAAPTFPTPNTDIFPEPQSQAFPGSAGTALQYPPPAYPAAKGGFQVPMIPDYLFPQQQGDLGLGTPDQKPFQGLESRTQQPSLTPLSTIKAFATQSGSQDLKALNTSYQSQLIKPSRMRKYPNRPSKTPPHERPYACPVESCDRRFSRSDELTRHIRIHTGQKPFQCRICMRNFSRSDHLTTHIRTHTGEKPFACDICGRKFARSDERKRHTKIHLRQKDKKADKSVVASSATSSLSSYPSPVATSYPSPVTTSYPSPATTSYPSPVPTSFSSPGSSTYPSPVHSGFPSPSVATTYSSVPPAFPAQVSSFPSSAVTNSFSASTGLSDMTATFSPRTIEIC

Compound	Activity [1] [%]	further results
COc1cccc(NC(=S)N2N=C(c3ccc4ccccc4c3O)CC2c2ccc(OC)cc2OC)c1 (stereo not given)	48	–
COc1cccc(NC(=S)N2N=C(c3ccc4ccccc4c3O)CC2c2c(OC)cc(OC)cc2OC)c1 (stereo not given)	64.8	–
COc1cc(OC)cc(C2CC(c3ccc4ccccc4c3O)=NN2C(=S)Nc2ccccc2)c1 (stereo not given)	59	–
COc1ccc(NC(=S)N2N=C(c3ccc4ccccc4c3O)CC2c2ccc(OC)cc2OC)cc1 (stereo not given)	44.5	–
COc1ccccc1NC(=S)N1N=C(c2ccc3ccccc3c2O)CC1c1ccc(OC)c(OC)c1OC (stereo not given)	46.5	–
COc1ccc(C2=NN(C(=S)Nc3ccccc3OC)C(c3ccc(OC)c4ccccc34)C2)c(O)c1 (stereo not given)	57.3	–
COc1cc(OC)c(C2CC(c3ccc4ccccc4c3O)=NN2C(=S)Nc2ccccc2)cc1OC (stereo not given)	81.8	–
COc1ccccc1NC(=S)N1N=C(c2ccc3ccccc3c2O)CC1c1cc(OC)c(OC)cc1OC (stereo not given)	68.8	–
COc1ccc(C2CC(c3ccc4ccccc4c3O)=NN2C(=S)Nc2ccc(OC)cc2OC)cc1 (stereo not given)	64.2	–
COc1cc(O)c(C2=NN(C(=S)Nc3cc(OC)c(OC)c(OC)c3)C(c3ccc(OC)c4ccccc34)C2)cc1OC (stereo not given)	59.1	–
COc1ccc(NC(=S)N2N=C(c3c(O)ccc4ccccc34)CC2c2ccccc2OC)cc1 (stereo not given)	31.8	–
COc1ccc(O)c(C2=NN(C(=S)Nc3ccccc3OC)C(c3ccc(OC)c4ccccc34)C2)c1 (stereo not given)	21.8	–
COc1cccc(NC(=S)N2N=C(c3ccc(OC)cc3O)CC2c2cccc3ccccc23)c1 (stereo not given)	32	–
COc1cccc(NC(=S)N2N=C(c3ccc4ccccc4c3O)CC2c2cccc(OC)c2)c1 (stereo not given)	16.5	–
COc1cccc(NC(=S)N2N=C(c3c(O)cccc3OC)CC2c2ccc(OC)c3ccccc23)c1 (stereo not given)	62.7	–
COc1cc(NC(=S)N2N=C(c3ccc4ccccc4c3O)CC2c2cccc(OC)c2OC)cc(OC)c1OC (stereo not given)	35.6	–
COc1ccc(NC(=S)N2N=C(c3ccc4ccccc4c3O)CC2c2ccc(OC)c(OC)c2OC)cc1 (stereo not given)	49.5	–
COc1cccc(NC(=S)N2N=C(c3ccc4ccccc4c3O)CC2c2cc(OC)cc(OC)c2)c1 (stereo not given)	42.8	–
COc1ccccc1NC(=S)N1N=C(c2c(O)cccc2OC)CC1c1cccc2ccccc12 (stereo not given)	40.9	–
COc1cccc(NC(=S)N2N=C(c3ccccc3O)CC2c2ccc(OC)c3ccccc23)c1 (stereo not given)	17.1	–
COc1ccc(C2CC(c3ccc4ccccc4c3O)=NN2C(=S)Nc2ccccc2OC)c(OC)c1 (stereo not given)	46	–
COc1ccc(NC(=S)N2N=C(c3ccc4ccccc4c3O)CC2c2ccc(OC)c(OC)c2OC)c(OC)c1 (stereo not given)	46.8	–
COc1cccc(NC(=S)N2N=C(c3ccc(OC)cc3O)CC2c2ccc(OC)c3ccccc23)c1 (stereo not given)	56.4	–
COc1cc(O)c(C2=NN(C(=S)Nc3ccccc3)C(c3cccc4ccccc34)C2)cc1OC (stereo not given)	53.6	–

Compound	Activity [1] [%]	further results
COc1cccc(NC(=S)N2N=C(c3ccc4ccccc4c3O)CC2c2ccccc2OC)c1 (stereo not given)	44.8	–
COc1ccccc1NC(=S)N1N=C(c2c(O)ccc3ccccc23)CC1c1ccccc1OC (stereo not given)	22.9	–
COc1ccc(C2CC(c3ccccc3O)=NN2C(=S)Nc2ccccc2)c2ccccc12 (stereo not given)	22.7	–
COc1ccc(NC(=S)N2N=C(c3ccc4ccccc4c3O)CC2c2c(OC)cc(OC)cc2OC)cc1 (stereo not given)	64.2	–
COc1cccc(C2CC(c3ccc4ccccc4c3O)=NN2C(=S)Nc2ccc(OC)cc2OC)c1 (stereo not given)	27	–
COc1ccc(C2=NN(C(=S)Nc3cc(OC)c(OC)c(OC)c3)C(c3ccc(OC)c4ccccc34)C2)c(O)c1 (stereo not given)	73.3	–
COc1ccccc1NC(=S)N1N=C(c2ccc3ccccc3c2O)CC1c1ccccc1OC (stereo not given)	33.2	–
COc1cc(O)c(C2=NN(C(=S)Nc3ccccc3)C(c3ccc(OC)c4ccccc34)C2)c(OC)c1 (stereo not given)	73.3	–
COc1cccc(NC(=S)N2N=C(c3ccc4ccccc4c3O)CC2c2ccc(OC)c(OC)c2OC)c1 (stereo not given)	38	–
COc1ccccc1NC(=S)N1N=C(c2cc(OC)c(OC)cc2O)CC1c1cccc2ccccc12 (stereo not given)	53.3	–
COc1cc(OC)cc(C2CC(c3ccc4ccccc4c3O)=NN2C(=S)Nc2ccccc2OC)c1 (stereo not given)	40.8	–
COc1cccc(NC(=S)N2N=C(c3c(O)cc(OC)cc3OC)CC2c2cccc3ccccc23)c1 (stereo not given)	53.3	–
COc1cccc(NC(=S)N2N=C(c3c(O)cc(OC)cc3OC)CC2c2ccc(OC)c3ccccc23)c1 (stereo not given)	56.7	–
COc1ccc(NC(=S)N2N=C(c3ccc4ccccc4c3O)CC2c2ccccc2OC)cc1 (stereo not given)	31.2	–
COc1ccc(NC(=S)N2N=C(c3c(O)cccc3OC)CC2c2cccc3ccccc23)cc1 (stereo not given)	54	–
COc1cc(NC(=S)N2N=C(c3c(O)cccc3OC)CC2c2cccc3ccccc23)cc(OC)c1OC (stereo not given)	51.6	–
COc1cccc(O)c1C1=NN(C(=S)Nc2ccccc2)C(c2ccc(OC)c3ccccc23)C1 (stereo not given)	64	–
COc1cc(O)c(C2=NN(C(=S)Nc3ccccc3OC)C(c3cccc4ccccc34)C2)c(OC)c1 (stereo not given)	71.3	–
COc1cc(O)c(C2=NN(C(=S)Nc3ccccc3OC)C(c3ccc(OC)c4ccccc34)C2)c(OC)c1 (stereo not given)	70.7	–
COc1ccc(NC(=S)N2N=C(c3ccc4ccccc4c3O)CC2c2cccc(OC)c2OC)c(OC)c1 (stereo not given)	67.8	–
COc1ccc(NC(=S)N2N=C(c3ccc4ccccc4c3O)CC2c2cc(OC)c(OC)cc2OC)cc1 (stereo not given)	69	–
COc1cc(O)c(C2=NN(C(=S)Nc3cc(OC)c(OC)c(OC)c3)C(c3cccc4ccccc34)C2)cc1OC (stereo not given)	42.4	–
COc1ccc(C2CC(c3ccc4ccccc4c3O)=NN2C(=S)Nc2ccccc2)cc1 (stereo not given)	52.8	–
COc1ccc(NC(=S)N2N=C(c3cc(OC)ccc3O)CC2c2ccc(OC)c3ccccc23)cc1 (stereo not given)	28	–

Compound	Activity [1] [%]	further results
COc1ccc(NC(=S)N2N=C(c3ccc4ccccc4c3O)CC2c2cccc(OC)c2OC)cc1 (stereo not given)	27	–
COc1ccc(C2=NN(C(=S)Nc3ccccc3)C(c3cccc4ccccc34)C2)c(O)c1 (stereo not given)	35.1	–
COc1cc(NC(=S)N2N=C(c3c(O)cccc3OC)CC2c2ccc(OC)c3ccccc23)cc(OC)c1OC (stereo not given)	71.8	–
COc1cccc(NC(=S)N2N=C(c3ccc4ccccc4c3O)CC2c2cc(OC)c(OC)cc2OC)c1 (stereo not given)	55.5	–
COc1ccc(/C=C/c2cc(OC)cc(OC)c2-c2oc3ccc([N+](=O)[O-])cc3c(=O)c2O)cc1	36.5	–
COc1ccc(NC(=S)N2N=C(c3ccc4ccccc4c3O)CC2c2c(OC)cc(OC)cc2OC)c(OC)c1 (racemic)	82.2	Activity [2]: Dose-dependent-effect; Activity [3]: Dose-dependent-effect; Activity [4]: Dose-dependent-effect; Activity [5]: Dose-dependent-effect; Activity [6]: Dose-dependent-effect
COc1ccc(NC(=S)N2N=C(c3ccc(OC)cc3O)CC2c2cccc3ccccc23)cc1 (stereo not given)	35.1	–
COc1ccc(C2CC(c3ccc4ccccc4c3O)=NN2C(=S)Nc2ccccc2)c(OC)c1OC (stereo not given)	44	–
COc1cc(O)c(C2=NN(C(=S)Nc3cc(OC)c(OC)c(OC)c3)C(c3cccc4ccccc34)C2)c(OC)c1 (stereo not given)	38.2	–
COc1cccc(NC(=S)N2N=C(c3cc(OC)c(OC)cc3O)CC2c2cccc3ccccc23)c1 (stereo not given)	36.4	–
COc1ccc(C2CC(c3ccc4ccccc4c3O)=NN2C(=S)Nc2cc(OC)c(OC)c(OO)c2)cc1 (stereo not given)	70.5	–
COc1ccccc1NC(=S)N1N=C(c2ccccc2O)CC1c1ccc(OC)c2ccccc12 (stereo not given)	29.1	–
COc1cc(OC)cc(C2CC(c3ccc4ccccc4c3O)=NN2C(=S)Nc2cc(OC)c(OC)c(OC)c2)c1 (stereo not given)	67.5	–
COc1ccc(NC(=S)N2N=C(c3cc(OC)c(OC)cc3O)CC2c2cccc3ccccc23)cc1 (stereo not given)	46.9	–
COc1ccc(NC(=S)N2N=C(c3ccc4ccccc4c3O)CC2c2ccc(OC)cc2OC)c(OC)c1 (stereo not given)	60.2	–
COc1ccc(NC(=S)N2N=C(c3c(O)cccc3OC)CC2c2ccc(OC)c3ccccc23)cc1 (stereo not given)	66.7	–
COc1cccc(NC(=S)N2N=C(c3c(O)cccc3OC)CC2c2cccc3ccccc23)c1 (stereo not given)	36.4	–
COc1ccc(NC(=S)N2N=C(c3cc(OC)c(OC)cc3O)CC2c2ccc(OC)c3ccccc23)cc1 (stereo not given)	57.3	–
COc1ccc(NC(=S)N2N=C(c3ccc4ccccc4c3O)CC2c2cc(OC)c(OC)cc2OC)c(OC)c1 (stereo not given)	56.5	–
COc1ccccc1NC(=S)N1N=C(c2c(O)cccc2OC)CC1c1ccc(OC)c2ccccc12 (stereo not given)	67.3	–
COc1ccc(NC(=S)N2N=C(c3ccc(OC)cc3O)CC2c2ccc(OC)c3ccccc23)cc1 (stereo not given)	74.4	–
COc1cccc(C2CC(c3ccc4ccccc4c3O)=NN2C(=S)Nc2cc(OC)c(OC)c(OC)c2)c1 (stereo not given)	30.8	–

Source: ChEMBL document CHEMBL6103550, “Pyrazolo-1-carbothioamides as EGR-1-DNA binding disruptors” (Bioorg Med Chem Lett, 2025)
